Results on eight molecules are retold here after PubChem BioAssay (NCI).

Common to all, as to assay: NCI tumour cell line growth inhibition, 48 h
Assay [1] deals with SK-MEL-5 melanoma.
The test system of assay [2] is SK-OV-3 ovarian.
Assay [3] has as its system CAKI-1 renal.
Assay [4] relates to SF-295 CNS.
In assay [5] the test system is NCI-H522 lung.
For assay [6], the system named is LOX IMVI melanoma.
Assay [7] deals with EKVX NSCLC.
Assay [8] concerns HL-60(TB) leukemia.
In assay [9] the test system is K-562 leukemia.
In assay [10] the test system is HCC-2998 colon.

Where “and” joins values, the source holds several entries; their conditions need not be identical. Identical values can stand only once.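 48-hour exposure; five concentrations; linearly interpolated endpoints. At the GI50, growth is halved. TGI: total growth inhibition.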 Where only a bound is given, the exact number is not on record here.

For `O=C1/C(=C/c2ccccc2F)CNC/C1=C\c1ccccc1F`, the GI50 in assay [1] was 1.22 µM and 1.59 µM; in assay [2] it was 1.68 µM and 1.58 µM; in assay [3] it was 0.676 µM and 0.611 µM; in assay [4] it was 0.707 µM and 0.531 µM; in assay [5], 0.772 µM and 1.3 µM; in assay [6], 0.318 µM and 0.186 µM. The GI50 in assay [7] was 0.775 µM and 1.9 µM; in [8], 0.371 µM and 2.04 µM; in assay [9], 0.27 µM and 0.341 µM; in [10], 1.13 µM and 0.359 µM. Moreover, the TGI was 2.85 µM and 3.05 µM in assay [1]; 4.01 µM and 3.12 µM in assay [2]; 3.71 µM and 2.16 µM in assay [3]; 3.5 µM and 1.71 µM in assay [4]; 2.73 µM and 2.8 µM in assay [5]; 1.22 µM and 0.461 µM in assay [6]. Also, the TGI in [7] is 2.58 µM and 5.26 µM; in assay [8] it was 1.96 µM and 6.92 µM; in [9], 2.27 µM and 2.63 µM; in [10], 2.38 µM and 1.16 µM.
Consider `COc1cc(C(O)c2nc3ccccc3s2)cc(OC)c1OC` (stereo not given), for which the GI50 in [1] is 7.35 µM; in [2], greater than 100 µM; in assay [3], 4.89 µM; in assay [4] it was 6.29 µM; in assay [5], 29.2 µM; in assay [6], 50.6 µM. The GI50 in assay [7] is 2.83 µM; in [8], 14.2 µM; in assay [9] it was 3.6 µM; in assay [10], greater than 100 µM. The TGI in [1] was 79.5 µM; in assay [2] it was greater than 100 µM; in assay [3] it was 93.9 µM; in assay [4] it was greater than 100 µM; in assay [5] it was greater than 100 µM; in assay [6], greater than 100 µM. Moreover, the TGI in assay [7], in assay [8], in assay [9] and in assay [10] was greater than 100 µM in each case.
Turning to `Nc1ncnc2c1ncn2CC(O)C(=O)O` (stereo not given), the TGI in assay [1], in [2], in assay [3], in assay [4], in [5] and in assay [6] was greater than 100 µM throughout. In addition, the TGI in [7], in assay [8], in assay [9] and in [10] was greater than 100 µM each time.
Turning to `COC(=O)C1C2C=CC(C2)C1(C(=O)OC)S(=O)CC12CCC(CC1O)C2(C)C` (stereo not given), the TGI was greater than 100 µM in assay [1]; greater than 100 µM in assay [2]; greater than 100 µM in assay [3]; greater than 100 µM in [4]; greater than 100 µM in assay [5]; 40 µM in assay [6]. The TGI in assay [7], in assay [8], in assay [9] and in assay [10] was greater than 100 µM throughout.
In the case of `O=C1CC(c2ccc3c(c2)OCO3)Nc2cc3c(cc21)OCO3` (stereo not given), the GI50 is 0.364 µM in assay [1]; 0.485 µM in assay [2]; 0.527 µM in assay [3]; 0.348 µM in assay [4]; 0.551 µM in assay [5]; 0.467 µM in [6]. The GI50 was 1.93 µM in assay [7], 0.252 µM in [8], 0.358 µM in [9] and 0.694 µM in assay [10]. The TGI is 1.94 µM in assay [1]; 44.2 µM in assay [2]; greater than 100 µM in [3]; 6.81 µM in [4]; 16.8 µM in [5]; 15.3 µM in assay [6]. In addition, the TGI in assay [7] was 72.6 µM; in assay [8], 0.637 µM; in assay [9], greater than 100 µM; in [10], 11 µM.
For the molecule `CCCCCCCCC(=O)N(C)C1C2CN3CCC(O2)C13` (stereo not given), the TGI in assay [1], in assay [2], in [3], in assay [4], in [5] and in [6] was greater than 100 µM each time. Moreover, the TGI in assay [7], in assay [8], in assay [9] and in [10] was greater than 100 µM throughout.
For the molecule `C/C(=C\c1ccn(-c2ccc(N)c(F)c2)n1)[C@@H]1C[C@@H]2O[C@]2(C)CCC[C@H](C)[C@H](O)[C@@H](C)C(=O)C(C)(C)[C@@H](O)CC(=O)O1`, the GI50 in assay [1] was 0.00882 µM; in assay [2] it was 0.0262 µM; in assay [3] it was 0.0802 µM; in [4], 0.0205 µM; in assay [5] it was 0.00973 µM; in [6] it was 0.0121 µM. The GI50 in assay [7] is 0.171 µM; in assay [8], 0.00873 µM; in [9], 0.00912 µM; in assay [10], 0.0287 µM. The TGI in assay [1] is 6.54 µM; in [2] it was greater than 50 µM; in assay [3], greater than 50 µM; in assay [4], greater than 50 µM; in assay [5], 0.0321 µM; in assay [6], greater than 50 µM. In addition, the TGI in assay [7] was greater than 50 µM; in assay [8], 0.323 µM; in assay [9] it was greater than 50 µM; in assay [10] it was greater than 50 µM.
`O=C(/C=C/c1cccs1)c1ccc(Nc2nc(Nc3ccc(F)cc3)nc(Nc3ccc(F)cc3)n2)cc1`: the GI50 in assay [1] is 56.4 µM; in assay [2], 56 µM; in assay [3], 38.1 µM; in assay [4], 20.4 µM; in [5], 20.5 µM; in assay [6], 32.1 µM. For the same molecule, the GI50 in assay [7] was 34.3 µM; in assay [8] it was 62.2 µM; in assay [9] it was 29.9 µM; in [10] it was 15.8 µM. Besides, the TGI in [1] is greater than 100 µM; in assay [2], greater than 100 µM; in assay [3], greater than 100 µM; in [4], 46.6 µM; in [5] it was 46.4 µM; in assay [6] it was greater than 100 µM. Besides, the TGI in assay [7], in assay [8], in [9] and in assay [10] was greater than 100 µM throughout.
